PubChem BioAssay AID1919016 (Molecular Pharmacology Branch, DTP, NCI, 2023)

System: NCI-H196 complex spheroid growth, percent test/control
Assay: Anticancer human tumor NCI-H196 cell line growth inhibition [AhR];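 also: seven days of drug exposure starting three days after plating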;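 as to viability, T/C: 100% = DMSO vehicle control wells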
Conditions: for IC50: curve of first compound; for viability, T/C: stronger effect = lower value
In short: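 Complex tumor spheroids co-cultured with HUVEC and human MSC stroma; AhR antagonists tested in combination with standard-of-care and investigational agents. Top concentration at or near clinical Cmax (else 10 microM), half-log dilutions; growth expressed as percent test/control.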

[1] = second compound 0.1 µM, first compound 0.00316 µM
[2] = second compound 0.1 µM, first compound 0.01 µM
[3] = second compound 0.1 µM, first compound 0.0316 µM
[4] = second compound 0.1 µM, first compound 0.1 µM
[5] = second compound 0.316 µM, first compound 0.00316 µM
[6] = second compound 0.316 µM, first compound 0.01 µM
[7] = second compound 0.316 µM, first compound 0.0316 µM
[8] = second compound 0.316 µM, first compound 0.1 µM
[9] = second compound 1 µM, first compound 0.00316 µM
[10] = second compound 1 µM, first compound 0.01 µM
[11] = second compound 1 µM, first compound 0.0316 µM
[12] = second compound 1 µM, first compound 0.1 µM
[13] = second compound 3.16 µM, first compound 0.00316 µM
[14] = second compound 3.16 µM, first compound 0.01 µM
[15] = second compound 3.16 µM, first compound 0.0316 µM
[16] = second compound 3.16 µM, first compound 0.1 µM
[17] = second compound 10 µM, first compound 0.00316 µM
[18] = second compound 10 µM, first compound 0.01 µM
[19] = second compound 10 µM, first compound 0.0316 µM
[20] = second compound 10 µM, first compound 0.1 µM
[21] = second compound 0.1 µM, first compound 0.316 µM
[22] = second compound 0.1 µM, first compound 1 µM
[23] = second compound 0.1 µM, first compound 3.16 µM
[24] = second compound 0.1 µM, first compound 10 µM
[25] = second compound 0.316 µM, first compound 0.316 µM
[26] = second compound 0.316 µM, first compound 1 µM
[27] = second compound 0.316 µM, first compound 3.16 µM
[28] = second compound 0.316 µM, first compound 10 µM
[29] = second compound 1 µM, first compound 0.316 µM
[30] = second compound 1 µM, first compound 1 µM
[31] = second compound 1 µM, first compound 3.16 µM
[32] = second compound 1 µM, first compound 10 µM
[33] = second compound 3.16 µM, first compound 0.316 µM
[34] = second compound 3.16 µM, first compound 1 µM
[35] = second compound 3.16 µM, first compound 3.16 µM
[36] = second compound 3.16 µM, first compound 10 µM
[37] = second compound 10 µM, first compound 0.316 µM
[38] = second compound 10 µM, first compound 1 µM
[39] = second compound 10 µM, first compound 3.16 µM
[40] = second compound 10 µM, first compound 10 µM

CC[C@@]1(O)C(=O)OCc2c1cc1n(c2=O)Cc2cc3c(CN(C)C)c(O)ccc3nc2-1 + Cc1ccccc1N=Nc1ccc(NC(=O)c2ccnn2C)c(C)c1
IC50 (second compound 0.1 µM): > 0.1 µM | IC50 (second compound 0.316 µM): > 0.1 µM | IC50 (second compound 1 µM): > 0.1 µM | IC50 (second compound 3.16 µM): > 0.1 µM | IC50 (second compound 10 µM): > 0.1 µM | viability, T/C (second compound 0.1 µM, first compound 0.000316 µM): 92.3% | viability, T/C (second compound 0.1 µM, first compound 0.001 µM): 111% | viability, T/C [1]: 93.5% | viability, T/C [2]: 88.8% | viability, T/C [3]: 112% | viability, T/C [4]: 102% | viability, T/C (second compound 0.316 µM, first compound 0.000316 µM): 105% | viability, T/C (second compound 0.316 µM, first compound 0.001 µM): 103% | viability, T/C [5]: 98.6% | viability, T/C [6]: 90.8% | viability, T/C [7]: 93.6% | viability, T/C [8]: 96.9% | viability, T/C (second compound 1 µM, first compound 0.000316 µM): 101% | viability, T/C (second compound 1 µM, first compound 0.001 µM): 112% | viability, T/C [9]: 98.3% | viability, T/C [10]: 98.4% | viability, T/C [11]: 99.7% | viability, T/C [12]: 93.5% | viability, T/C (second compound 3.16 µM, first compound 0.000316 µM): 97.2% | viability, T/C (second compound 3.16 µM, first compound 0.001 µM): 101% | viability, T/C [13]: 109% | viability, T/C [14]: 86.5% | viability, T/C [15]: 91.1% | viability, T/C [16]: 103% | viability, T/C (second compound 10 µM, first compound 0.000316 µM): 95% | viability, T/C (second compound 10 µM, first compound 0.001 µM): 97.7% | viability, T/C [17]: 89% | viability, T/C [18]: 98.3% | viability, T/C [19]: 102% | viability, T/C [20]: 97%

COc1cc(C2c3cc4c(cc3C(OC3OC5COC(C)OC5C(O)C3O)C3COC(=O)C23)OCO4)cc(OC)c1O (stereo not given) + Cc1ccccc1N=Nc1ccc(NC(=O)c2ccnn2C)c(C)c1
IC50 (second compound 0.1 µM): > 10 µM | IC50 (second compound 0.316 µM): > 10 µM | IC50 (second compound 1 µM): > 10 µM | IC50 (second compound 3.16 µM): > 10 µM | IC50 (second compound 10 µM): > 10 µM | viability, T/C [3]: 97.3% | viability, T/C [4]: 93.5% | viability, T/C [21]: 87.4% | viability, T/C [22]: 86.2% | viability, T/C [23]: 87.9% | viability, T/C [24]: 76.8% | viability, T/C [7]: 92.1% | viability, T/C [8]: 95% | viability, T/C [25]: 96.8% | viability, T/C [26]: 89.8% | viability, T/C [27]: 91.2% | viability, T/C [28]: 75.6% | viability, T/C [11]: 93.5% | viability, T/C [12]: 94.6% | viability, T/C [29]: 93.5% | viability, T/C [30]: 92.1% | viability, T/C [31]: 100% | viability, T/C [32]: 74.3% | viability, T/C [15]: 89% | viability, T/C [16]: 94.7% | viability, T/C [33]: 91.4% | viability, T/C [34]: 79.5% | viability, T/C [35]: 87.1% | viability, T/C [36]: 75.3% | viability, T/C [19]: 85.7% | viability, T/C [20]: 84.3% | viability, T/C [37]: 89.3% | viability, T/C [38]: 93% | viability, T/C [39]: 88% | viability, T/C [40]: 78.9%

COc1cccc2c1C(=O)c1c(O)c3c(c(O)c1C2=O)CC(O)(C(=O)CO)CC3OC1CC(N)C(O)C(C)O1 (stereo not given) + Cc1ccccc1N=Nc1ccc(NC(=O)c2ccnn2C)c(C)c1
IC50 (second compound 0.1 µM): 0.665 µM | IC50 (second compound 0.316 µM): 0.662 µM | IC50 (second compound 1 µM): 0.668 µM | IC50 (second compound 3.16 µM): 0.646 µM | IC50 (second compound 10 µM): 0.875 µM | viability, T/C [3]: 113% | viability, T/C [4]: 102% | viability, T/C [21]: 79.4% | viability, T/C [22]: 36.2% | viability, T/C [23]: 3.08% | viability, T/C [24]: 7.85% | viability, T/C [7]: 101% | viability, T/C [8]: 100% | viability, T/C [25]: 76.8% | viability, T/C [26]: 36.7% | viability, T/C [27]: 1.54% | viability, T/C [28]: 5.07% | viability, T/C [11]: 99.5% | viability, T/C [12]: 105% | viability, T/C [29]: 78.5% | viability, T/C [30]: 35.9% | viability, T/C [31]: 2.43% | viability, T/C [32]: 8.49% | viability, T/C [15]: 91.5% | viability, T/C [16]: 93.8% | viability, T/C [33]: 76.6% | viability, T/C [34]: 34.7% | viability, T/C [35]: 2.43% | viability, T/C [36]: 13% | viability, T/C [19]: 97.2% | viability, T/C [20]: 92.2% | viability, T/C [37]: 90.7% | viability, T/C [38]: 44.3% | viability, T/C [39]: 2.3% | viability, T/C [40]: 12.7%

Nc1ncn(C2CC(O)C(CO)O2)c(=O)n1 (stereo not given) + Cc1ccccc1N=Nc1ccc(NC(=O)c2ccnn2C)c(C)c1
IC50 (second compound 0.1 µM): > 1 µM | IC50 (second compound 0.316 µM): > 1 µM | IC50 (second compound 1 µM): > 1 µM | IC50 (second compound 3.16 µM): > 1 µM | IC50 (second compound 10 µM): > 1 µM | viability, T/C [1]: 92.6% | viability, T/C [2]: 105% | viability, T/C [3]: 94.7% | viability, T/C [4]: 94.4% | viability, T/C [21]: 104% | viability, T/C [22]: 96.6% | viability, T/C [5]: 104% | viability, T/C [6]: 104% | viability, T/C [7]: 108% | viability, T/C [8]: 103% | viability, T/C [25]: 108% | viability, T/C [26]: 96.4% | viability, T/C [9]: 88.7% | viability, T/C [10]: 104% | viability, T/C [11]: 106% | viability, T/C [12]: 101% | viability, T/C [29]: 84.9% | viability, T/C [30]: 94.5% | viability, T/C [13]: 97% | viability, T/C [14]: 86.9% | viability, T/C [15]: 105% | viability, T/C [16]: 86.4% | viability, T/C [33]: 92.5% | viability, T/C [34]: 89.8% | viability, T/C [17]: 90% | viability, T/C [18]: 97.3% | viability, T/C [19]: 87.6% | viability, T/C [20]: 86.7% | viability, T/C [37]: 78.7% | viability, T/C [38]: 83%
